From PMC3989846 (Malaria Journal, 2014)

Tested on: luciferase-expressing P. berghei ANKA sporozoites
Test: Real time in vivo imaging (IVIS) of liver-stage luminescence in sporozoite-infected mice
Set-up: species or system Plasmodium berghei
Conditions: for Suppression rate (%) IVIS 24 h: 24 h post infection; for Suppression rate (%) IVIS 48 h: 48 h post infection; for Suppression rate (%) IVIS 72 h: 72 h post infection
From the text: Luciferase-expressing P. berghei ANKA sporozoites were obtained from laboratory-reared female An. stephensi mosquitoes from the Department of Mosquito Biology, WRAIR. […] Salivary glands were extracted from malaria-infected mosquitoes and kept on ice in RPMI medium with 1% mouse serum. Sporozoites will be recovered by the method of Ozaki, and quantitated using a haemocytometer. Sporozoites isolated from the same batch of mosquitoes will be inoculated into C57BL/6 albino mice on the same day to control for biological variability in sporozoite preparations. Each C57BL/6 mouse will be inoculated intravenously in the tail vein with approximately 50,000 sporozoites suspended in 0.1 mL volume on day 0. To ensure that inoculated sporozoites are viable following the isolation procedure, they will be stained with a vital dye containing fluorescein diacetate (50 mg/mL in acetone) and ethidium bromide (20 μg/mL in phosphate-buffered saline; Sigma Chemical Co., St. Louis, Mo.) and counted in a haemocytometer.
[…] […] Additionally, blood stage infections were measured by flow cytometry. Positive and negative controls were used for the IVIS calibration in each test.
Causal prophylactic effects and delay in onset of parasitaemia in animals treated with TQ and PQ (Figure 1) were assessed in these experiments, which included a positive control, 4-methyl-PQ. All dosing was conducted based on the body weight at the time of preparation of the dosing solution. […] Each animal received 0.1 - 0.2 ml of the oral solutions, delivered via an intragastric feeder (18-gauge) to the designated recipient. Stock solutions of test compounds were prepared fresh daily by grinding the needed amount of drug in cold (4°C) 0.5% (w/v) hydroxyethyl cellulose and 0.2% (v/v) Tween-80 (0.5% HECT) and diluting the resulting solution at variable concentrations. C57BL/6 albino mice were challenged intravenously with 50,000 luciferase-expressing P. berghei sporozoites extracted from the salivary glands of heavily infected An. stephensi mosquitoes. […] At day 5–30 after infection, the same mice were analysed for blood stage infection by determination of the course of parasitaemia of tail blood by flow cytometry using an FC500 flow cytometer (Beckman-Coulter Co. CA).
In vivo imaging studies of bioluminescence activity from luciferase expressing P. berghei infected mice were performed using a Perkin Elmer IVIS Spectrum (Hanover, MD). […] Three minutes post luciferin administration the mice were anesthetized with inhaled isoflurane. The mice were then positioned ventral side up in the IVIS on a 37°C platform. The mice continue to receive isoflurane through nose cone delivery. The camera exposure times utilized were 1 and 5 minutes for the 24, 48, and 72 hour time points with f-stop = 1 and large binning setting. Quantitative analysis of bioluminescence emitted from whole bodies or region of intensity (ROI) were determined by measuring the luminescence signal intensity in photons/second using the ROI settings of the Living Image® 3.0 software. The ROI, which measurements were expressed in total flux of photons, was set to measure the abdominal area at the location of the liver from whole body imaging.
In the in vivo imaging experiments, causal prophylaxis activity, sporontocidal activity, parasite clearance, causal cure, delays in patency, and time to recrudescence were calculated as described previously. The minimum curative dose (MCD100) in 100% animals was defined as the lowest dose, which cured all animals (>5 animals) in a group at any time during the first 30 days of the follow-up period.

[1] = 1.25 mg/kg oral, 3 days (-1, 0, 1)
[2] = 5 mg/kg oral, 3 days (-1, 0, 1)
[3] = 5 mg/kg single oral dose on day 0
[4] = 5 mg/kg single oral dose on day -1
[5] = 10 mg/kg oral, 3 days (-1, 0, 1)
[6] = 15 mg/kg oral, 3 days (-1, 0, 1)
[7] = 20 mg/kg oral, 3 days (-1, 0, 1)
[8] = 25 mg/kg oral, 3 days (-1, 0, 1)
[9] = 25 mg/kg single oral dose on day 0
[10] = 25 mg/kg single oral dose on day -1

Which results are given for `COc1cc(C)c2c(Oc3cccc(C(F)(F)F)c3)c(OC)cc(NC(C)CCCN)c2n1` (stereo not shown) [Tafenoquine, tafenoquine]?
Suppression rate (%) IVIS 24 h [1]: 84.7%; Suppression rate (%) IVIS 48 h [1]: 92.3%; Suppression rate (%) IVIS 72 h [1]: 98.9%; Suppression rate (%) IVIS 48 h [2]: 100%; Suppression rate (%) IVIS 72 h [2]: 100%; Suppression rate (%) IVIS 24 h [3]: 66.0%; Suppression rate (%) IVIS 48 h [3]: 91.1%; Suppression rate (%) IVIS 72 h [3]: 98.5%; Suppression rate (%) IVIS 24 h [4]: 68.7%; Suppression rate (%) IVIS 48 h [4]: 98.6%; Suppression rate (%) IVIS 72 h [4]: 100%; Suppression rate (%) IVIS 24 h [5]: 100%; Suppression rate (%) IVIS 48 h [5]: 100%; Suppression rate (%) IVIS 72 h [5]: 100%

What does the source list for `COc1cc(NC(C)CCCN)c2ncccc2c1` (stereo not shown) [Primaquine, primaquine]?
Suppression rate (%) IVIS 24 h [2]: 82.4%; Suppression rate (%) IVIS 48 h [2]: 77.5%; Suppression rate (%) IVIS 72 h [2]: 89.4%; Suppression rate (%) IVIS 24 h [5]: 100%; Suppression rate (%) IVIS 48 h [5]: 97.6%; Suppression rate (%) IVIS 72 h [5]: 100%; low level of luminescence (10 mg/kg x 3 days, 5 of 10 animals, 48 hours): 0.66 × 10^5 photons/sec; Suppression rate (%) IVIS 24 h [6]: 100%; Suppression rate (%) IVIS 48 h [6]: 100%; Suppression rate (%) IVIS 72 h [6]: 100%; Suppression rate (%) IVIS 24 h [7]: 100%; Suppression rate (%) IVIS 48 h [7]: 100%; Suppression rate (%) IVIS 72 h [7]: 100%; Suppression rate (%) IVIS 24 h [8]: 100%; Suppression rate (%) IVIS 48 h [8]: 100%; Suppression rate (%) IVIS 72 h [8]: 100%; Suppression rate (%) IVIS 24 h [9]: 11.2%; Suppression rate (%) IVIS 48 h [9]: 0%; Suppression rate (%) IVIS 72 h [9]: 0%; Suppression rate (%) IVIS 24 h [10]: 45.7%; Suppression rate (%) IVIS 48 h [10]: 0%; Suppression rate (%) IVIS 72 h [10]: 0%; liver luminescence after 24 hours (single oral dose 25 mg/kg): high levels of luminescence and no suppression of signal
